From US10149911B2, “Pharmaceutical composition containing hydroxamic acid derivative or salt thereof” (TOYAMA CHEMICAL CO., LTD., priority 2014, dated 2018)

Experiments:
[1] = system: Pseudomonas aeruginosa clinical isolate (S-2838 strain); test: Mouse model with pulmonary infection by multidrug-resistant Pseudomonas aeruginosa; assay type: in vivo; settings: cyclophosphamide-treated male ICR mice, S-2838 strain intranasal, 25 mg/kg
Procedure: The mice used were male ICR SPF mice (4.5 weeks old at the time of infection: 5 individuals per group). In order to achieve a transient compromised state, cyclophosphamide was intraperitoneally administered at a dose of 200 mg/kg to each mouse 4 days before injection.
(§1) To prepare a bacterial inoculum solution, a Pseudomonas aeruginosa clinical isolate (S-2838 strain) was suspended in sterile saline.
Infection was induced by the inoculation of 0.05 mL of the inoculum solution (approximately 10^5 CFU/mouse) to each mouse intranasally. […] The numbers of bacterial colonies of the next day of the infection in the lungs were recorded, and an average thereof was calculated.

[2] = system: multidrug-resistant Pseudomonas aeruginosa clinical isolate (S-2838 strain); test: Defense against mouse systemic infection using multidrug-resistant Pseudomonas aeruginosa; assay type: in vivo; settings: male ICR mice, S-2838 strain i.p., 25 mg/kg
Procedure: The mice used were male ICR SPF mice (4 weeks old: 5 individuals per group).
To prepare a bacterial inoculum solution, a multidrug-resistant Pseudomonas aeruginosa clinical isolate (S-2838 strain) cultured overnight at 37° C. on a Mueller-Hinton agar plate was cultured for 5 hours in a cation-adjusted Mueller-Hinton medium and then diluted 10-fold with a 10% mucin/phosphate buffer solution to prepare the inoculum solution.
Infection was induced by the intraperitoneal inoculation of 0.5 mL of the inoculum solution (approximately 10^6 CFU/mouse) to each mouse. […] Three days after the infection, the number of survivors was recorded.

[3] = system: Pseudomonas aeruginosa clinical isolate (S-2838 strain); test: Mouse model with urinary tract infection by multidrug-resistant Pseudomonas aeruginosa; assay type: in vivo; settings: female ICR mice, S-2838 strain via urethra, 12.5 mg/kg
Procedure: The mice used were female ICR SPF mice (5 weeks old: 5 individuals per group).
as §1
Infection was induced by the inoculation of 0.2 mL of the inoculum solution (approximately 10^3 CFU/mouse) through the urethra of each mouse. […] The numbers of bacterial colonies of the next day of the infection in the kidneys were recorded, and an average thereof was calculated.

[4] = Solubility test in 10% CD or CD derivative solution; assay type: physicochemical; settings: thermodynamic from solid, room temperature
Procedure: To 5 mL of a 10% CD or CD derivative solution, about 100 mg of Compound A monohydrate was added, and stirred at room temperature for 24 hours. To the solutions in which αCD, HPαCD, DMβCD and methyl-β-cyclodextrin were used, about 100 mg of Compound A monohydrate was added after 6 hours. After centrifugation (3000 rpm, 10 minutes), the supernatant was filtered with a filter, and the solubility was measured by the HPLC method.

Row | Structure (SMILES) | decrease in the intrapulmonary viable cell count compared to the control group [1] [log CFU/lung] | mice surviving 3 days after the bacterial inoculation [2] [%] | decrease in the intrarenal viable cell count compared to the control group [3] [log CFU/kidney] | solubility at 24 h ([4]; 10% DMβCD solution, aqueous with cosolvent or surfactant or cyclodextrin, 10% DM β CD solution) [mg/mL] | solubility at 24 h ([4]; 10% HPαCD solution, aqueous with cosolvent or surfactant or cyclodextrin, 10% HP α CD solution) [mg/mL] | solubility at 24 h ([4]; 10% HPβCD solution, aqueous with cosolvent or surfactant or cyclodextrin, 10% HP β CD solution) [mg/mL] | solubility at 24 h ([4]; 10% HPγCD solution, aqueous with cosolvent or surfactant or cyclodextrin, 10% HP γ CD solution) [mg/mL] | solubility at 24 h ([4]; 10% SBEβCD solution, aqueous with cosolvent or surfactant or cyclodextrin, 10% SBE β CD solution) [mg/mL] | solubility at 24 h ([4]; 10% αCD solution, aqueous with cosolvent or surfactant or cyclodextrin, 10% α CD solution) [mg/mL] | solubility at 24 h ([4]; 10% βCD solution, aqueous with cosolvent or surfactant or cyclodextrin, 10% β CD solution) [mg/mL] | solubility at 24 h ([4]; 10% γCD solution, aqueous with cosolvent or surfactant or cyclodextrin, 10% γ CD solution) [mg/mL] | solubility at 24 h ([4]; aqueous with cosolvent or surfactant or cyclodextrin, 10% 2,3,6-Tri-O-methyl-β-cyclodextrin solution) [mg/mL] | solubility at 24 h ([4]; aqueous with cosolvent or surfactant or cyclodextrin, 10% 6-O-α-maltosyl-β-cyclodextrin solution) [mg/mL] | solubility at 24 h ([4]; aqueous with cosolvent or surfactant or cyclodextrin, 10% Hydroxyethyl-β-cyclodextrin solution) [mg/mL] | solubility at 24 h ([4]; aqueous with cosolvent or surfactant or cyclodextrin, 10% Methyl-β-cyclodextrin solution) [mg/mL] | solubility at 24 h ([4]; water, None (no CD or CD derivative)) [mg/mL]
1 | CNC(=O)[C@@](C)(C(=O)NO)N(C)C(=O)c1ccc(C#Cc2ccc([C@H](O)CO)cc2)cc1 [Compound A, (2S)-2-((4-((4-((1S)-1,2-dihydroxyethyl)phenyl)ethynyl)benzoyl)(methyl)amino)-N-hydroxy-N′,2-dimethylmalonamide] | ≥ 2 | ≥ 60 | ≥ 2 |  |  |  |  |  |  |  |  |  |  |  |  | 
2 | CNC(=O)[C@@](C)(C(=O)NO)N(C)C(=O)c1ccc(C#Cc2ccc([C@H](O)CO)cc2)cc1 [Compound A monohydrate, (2S)-2-((4-((4-((1S)-1,2-dihydroxyethyl)phenyl)ethynyl)benzoyl)(methyl)amino)-N-hydroxy-N′,2-dimethylmalonamide] |  |  |  | 16.6 | 25.7 | 11.6 | 8.8 | 8.9 | 30.2 | 5.9 | 14.4 | 4.7 | 10 | 11.9 | 17.5 | 0.2
